Results published in paper PMC8078842 (PLoS Neglected Tropical Diseases, 2021).

Tests used:
Angiotensin II, AT2 = experiment: CNS side effect panel, [^125I]Tyr4-Angiotensin II; assay type: binding; conditions: pentamidine 1.0E^-5 M
[1] = tested on: Decarboxylase, Glutamic Acid; experiment: CNS side effect panel, [^14C]Glutamic acid; assay type: biochemical; conditions: pentamidine 1.0E^-5 M
Histamine, H2 = Histamine, H2 (Cavia porcellus, UniProt P47747); experiment: CNS side effect panel, [^125I]-Aminopotentidine; assay type: binding
[2] = Drug release from dialysis cells (Ritger-Peppas model); assay type: physicochemical; conditions: 10 mM PTI ± 1% Pluronic, water, 37°C
Method: The tube was immersed in a 200 mL closed Duran flask which was placed in a water bath at 37°C for the duration of the experiment.
The data was fitted to Ritger-Peppas model.
Where M and M∞ are the cumulative amounts of drug released at time t and at infinite time, respectively; k, the reaction constant, t the time, n, the diffusional exponent describing the type of regime type: n = 1, case II transport, n = 0.5, Fickian diffusion, 0.5<n<1 non-Fickian diffusion.

Calmodulin = conditions: Inhibits nNO synthase in vitro; cited from earlier work
[3] = target: T1, Oxidase, MAO-A-Peripheral (Rattus norvegicus, UniProt P21396); experiment: CNS side effect panel, [^14C] - 5HT; assay type: biochemical
T1 sequence (P21396 1-526): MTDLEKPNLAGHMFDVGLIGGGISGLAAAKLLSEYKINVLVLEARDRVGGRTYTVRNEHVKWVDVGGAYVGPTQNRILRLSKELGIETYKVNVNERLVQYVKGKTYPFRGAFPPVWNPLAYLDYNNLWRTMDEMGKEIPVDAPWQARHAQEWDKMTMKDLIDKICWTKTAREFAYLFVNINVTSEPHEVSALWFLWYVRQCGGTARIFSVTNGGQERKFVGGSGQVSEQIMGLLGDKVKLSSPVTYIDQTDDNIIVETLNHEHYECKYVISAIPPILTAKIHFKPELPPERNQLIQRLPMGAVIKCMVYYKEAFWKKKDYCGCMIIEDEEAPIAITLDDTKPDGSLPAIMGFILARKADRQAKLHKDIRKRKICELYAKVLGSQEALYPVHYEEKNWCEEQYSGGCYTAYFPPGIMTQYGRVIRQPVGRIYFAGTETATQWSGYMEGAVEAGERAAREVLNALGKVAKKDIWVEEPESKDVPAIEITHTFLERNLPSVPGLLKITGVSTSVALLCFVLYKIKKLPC

Esterase, Acetylcholine = experiment: CNS side effect panel, Acetylthiocholine; assay type: biochemical; conditions: pentamidine 1.0E^-5 M

Chain of Histamine, H2 (P47747 whole entry): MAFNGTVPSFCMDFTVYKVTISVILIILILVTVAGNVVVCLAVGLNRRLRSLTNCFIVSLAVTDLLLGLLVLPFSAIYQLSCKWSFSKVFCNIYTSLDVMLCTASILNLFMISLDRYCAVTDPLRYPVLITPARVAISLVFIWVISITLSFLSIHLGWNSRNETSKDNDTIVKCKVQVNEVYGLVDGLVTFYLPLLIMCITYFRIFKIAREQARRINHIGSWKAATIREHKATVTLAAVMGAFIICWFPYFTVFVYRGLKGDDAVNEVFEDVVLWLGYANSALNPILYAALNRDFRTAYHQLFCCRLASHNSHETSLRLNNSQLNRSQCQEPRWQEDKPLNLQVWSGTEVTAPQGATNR

## N=C(N)c1ccc(OCCCCCOc2ccc(C(=N)N)cc2)cc1 [Pentamidine, 1,5-bis-4ρ-amidinophenoxypentane]
Angiotensin II, AT2
  Percent Inhibition: 2.96%
[1]
  Percent Inhibition: -1.41%
Histamine, H2
  Ki: 7.21 µM
Histamine, H2; pentamidine 1.0E^-5 M
  Percent Inhibition: 71.07%
[2]
  reaction constant (k, Ritger-Peppas): ~0.3
  reaction type (diffusional exponent n, Ritger-Peppas): ca. 0.5
Calmodulin
  Affinity: 30 µM
[3]; Monoamine oxidase A, concentration-response
  Ki: 0.217 µM
[3]; pentamidine 1.0E^-5 M
  Percent Inhibition: 89.42%
Esterase, Acetylcholine
  Percent Inhibition: 23.21%
